Literature values as cited in paper PMC5028780, “Receptor and transporter binding and activity profiles of albiflorin extracted from Radix paeoniae Alba” (Scientific Reports, 2016).

What was measured:
h5-HT2C receptors = settings: reference not given; cited from earlier work
5-HT2C sites = system: 5-HT2C sites; set-up: method as in PMID 11454919, PMID 10621762; settings: antagonist properties; cited from earlier work

SMILES	affinity for h5-HT2C receptors (h5-HT2C receptors)	affinity at 5-HT2C sites (5-HT2C sites)
CCOc1ccccc1OC(c1ccccc1)C1CNCCO1 (stereo not drawn) [Reboxetine]	mild affinity	
CN(C)CCCC1(c2ccc(F)cc2)OCc2cc(C#N)ccc21 (stereo not drawn) [citalopram]		modest affinities
CN(C)CCCN1c2ccccc2CCc2ccc(Cl)cc21 [clomipramine]		modest affinities
